The values that follow come from patent US20180296630A1, “METHODS AND COMPOSITIONS FOR PREVENTING OR TREATING OPHTHALMIC CONDITIONS” (Stealth BioTherapeutics Corp, priority 2012, published 2018).

In test [1] the test system is GTM3 cells. As to the kind of experiment: ROS production, sustained oxidative injury by H2O2, GTM3 cells. Type of test: cell-based, human. The conditions noted are these: then 200 μM H2O2 24 h. The method, then:
The effects of D-Arg-2′,6′-Dmt-Lys-Phe-NH2 on sustained oxidative injury of GTM and HTM cells was examined. Cells were pre-treated with 10^−6, 10^−7, 10^−8M of D-Arg-2′,6′-Dmt-Lys-Phe-NH2 for 1 h, and then incubated with 200 μM H2O2 for 24 h to investigate the protective effect of D-Arg-2′,6′-Dmt-Lys-Phe-NH2 in sustained oxidative stress.

The subject of test [2] is GTM cells. As to the kind of experiment: TMRM fluorescence (mitochondrial membrane potential), acute H2O2 injury, FACS, GTM cells. Type of test: cell-based, human. The conditions noted are these: n=4. From the text: Methods to measure mitochondrial membrane potential using TMRM useful in the studies of the present invention have been described by Andrea Rasola and Massimo Geuna, A flow cytometry assay simultaneously detects independent apoptotic parameters, Cytometry 45:151-157, 2001; Mitoprobe™ JC-1 Kit for Flow Cytometry, Molecular Probes, Invitrogen, USA.
The mitochondrial membrane potential (Δψm) of HTM and GTM cells was investigated when those cells were exposed to hydrogen peroxide prior to administration of D-Arg-2′,6′-Dmt-Lys-Phe-NH2. First, the mitochondrial membrane potential was measured using confocal microscopy of cells labeled with tetramethylrhodamine methyl ester (TMRM, 500 nM×30 min) (FIG. 15). The mitochondrial membrane potential was also measured using flow cytometry (FIGS. 16-17) by labeling cells with the mitochondrion-selective probe tetramethylrhodamine methyl ester (TMRM, 500 nM×30 min).
The effects of D-Arg-2′,6′-Dmt-Lys-Phe-NH2 at mitigating acute oxidative injury in GTM and HTM cells was investigated. […] The percentage of fluorescence intensity compared to GTM control in H2O2, D-Arg-2′,6′-Dmt-Lys-Phe-NH2 10^−6M, D-Arg-2′,6′-Dmt-Lys-Phe-NH2 10^−7M, D-Arg-2′,6′-Dmt-Lys-Phe-NH2 10^−8M were 35.2±2.12%, 56.2±4.04%, 50.3±4.46%, 47.5±2.82% respectively, n=4; the HTM groups were 37.4±0.725%, 57.7±1.80%, 50.6±3.06%, 49.4±2.27% respectively, n=4. ** means P<0.01 compared to GTM H2O2 group; * means P<0.05 compared to GTM H2O2 group; ▴ ▴ ▴ means P<0.001 compared to HTM H2O2 group.

Test [3] relates to human retinal epithelial cells (HREC). As to the kind of experiment: Survival of HRECs in high glucose (Annexin V/PI, flow cytometry). It counts as cell-based. Conditions: for survival ratio for HRECs (Q3): 24 hours. From the text:
Methods of HREC culture useful in the studies of the present invention are known. See generally, Li B, Tang S B, Zhang G, Chen J H, Li B J. Culture and characterization of human retinal capillary endothelial cell. Chin Ophthal Res 2005; 23: 20-2; Premanand C, Rema M, Sameer M Z, Sujatha M, Balasubramanyam M. Effect of curcumin on proliferation of human retinal endothelial cells under in vitro conditions. Invest Ophthalmol Vis Sci 2006; 47: 2179-84.
Briefly, HREC cells were divided into three groups: a normal control group; a group administered 30 mM glucose; and a group administered 30 mM glucose+D-Arg-2′,6′-Dmt-Lys-Phe-NH2. Survival of HRECs in high glucose co-treated with different concentrations of D-Arg-2′,6′-Dmt-Lys-Phe-NH2 (10 nM, 100 nM, 1 μM, 10 μM) was measured using an Annexin V+PI assay and flow cytometry. See generally, Koopman, G., Reutelingsperger, C. P., Kuijten, G. A. M., Keehnen, R. M. J., Pals, S. T., and van Oers, M. H. J. 1994. Annexin V for flow cytometric detection of phosphatidylserine expression on B cells undergoing apoptosis. Blood 84: 1415; Homburg, C. H., de Haas, M., von dem Borne, A. E., Verhoeven, A. J., Reutelingsperger, C. P., and Roos, D. 1995. Human neutrophils lose their surface Fc gamma RIII and acquire Annexin V binding sites during apoptosis in vitro. Blood 85: 532; Vermes, I., Haanen, C., Steffens-Nakken, H., and Reutelingsperger, C. 1995. A novel assay for apoptosis—flow cytometric detection of phosphatidylserine expression on early apoptotic cells using fluorescein labelled Annexin V. J. Immunol. Meth. 184: 39; Fadok, V. A., Voelker, D. R., Campbell, P. A., Cohen, J. J., Bratton, D. L., and Henson, P. M. 1992. Exposure of phosphatidylserine on the surface of apoptotic lymphocytes triggers specific recognition and removal by macrophages. J. Immunol. 148: 2207.
The survival of HRECs in high glucose co-treated with D-Arg-2′,6′-Dmt-Lys-Phe-NH2 was tested at 24 h and 48 h.
On the technique in general: A flow cytometer gives signals particle by particle.

The test system of test [4] is GTM cells. As to the kind of experiment: Intracellular ROS production, acute H2O2 injury, FACS, GTM cells. It counts as cell-based, human. Conditions: n=3. From the text:
The percentage of intracellular ROS production compared to GTM control in GTM H2O2, D-Arg-2′,6′-Dmt-Lys-Phe-NH2 10^−6M, D-Arg-2′,6′-Dmt-Lys-Phe-NH2 10^−7M, D-Arg-2′,6′-Dmt-Lys-Phe-NH2 10^−8M groups were 146.0±2.27%, 84.5±8.75%, 102.0±5.69%, 133.0±5.17% respectively (n=3); the HTM groups were 153.0±3.46%, 79±2.39%, 91.8±3.49%, 129.0±8.24% respectively (n=4). P<0.001 GTM and HTM H2O2 Group compared to control; *** means P<0.001 compared to GTM H2O2 group; ▴ ▴ ▴ Means P<0.001 compared to HTM H2O2 group; ▴ ▴ means P<0.01 compared to HTM H2O2 group.

On to D-Arg-2′,6′-Dmt-Lys-Phe-NH2, for which the “ROS Production” value in test [1] (0.01 μM pre-treatment 1 h) amounted to 133.70 ± 3.24 %; in test [1] (0.1 μM pre-treatment 1 h), 68.91 ± 8.62 %; in test [1] (1 μM pre-treatment 1 h), 47.40 ± 1.81 %. In addition, the “percentage of TMRM fluorescence intensity compared to GTM control” value was 56.2±4.04% in test [2] (10^−6M), 50.3±4.46% in test [2] (10^−7M) and 47.5±2.82% in test [2] (10^−8M). Besides, the “survival ratio for HRECs (Q3)” value in test [3] (10 nM co-treatment with 30 mM glucose) came to 84.3%; in test [3] (100 nM co-treatment with 30 mM glucose), 90.7%; in test [3] (1 μM co-treatment with 30 mM glucose), 92.8%; in test [3] (10 μM co-treatment with 30 mM glucose), 94.3%. For the same substance, the “survival of HRECs in high glucose” value in test [3] (co-treatment, tested at 24 h and 48 h) was “significantly improved”. Further, the “percentage of intracellular ROS production compared to GTM control” value in test [4] (10^−6M) was found to be 84.5±8.75%; in test [4] (10^−7M), 102.0±5.69%; in test [4] (10^−8M) it was 133.0±5.17%.
